Measurements reported in US8759500B2, “Crystalline forms of a macrolide, and uses therefor” (Cempra Pharmaceuticals, Inc., priority 2010, dated 2014).
Converted amounts (≈) assume the structure as drawn.

How the values were obtained:
[1] = Aqueous solubility in water at indicated pH; conditions: water at adjusted pH, 26 °C, thermodynamic from solid
Dynamic vapor sorption = assay type: physicochemical
Procedure: The new physical form, Form I of CEM-101 is a crystalline form which may be described by its X-ray powder diffraction pattern. Peaks at approximate positions of about °2θ=8.8, 10.5, 13.2 and 18.6 are representative of this crystalline form. A more detailed analysis of the peaks is described in Tables 1-2 below. […] Water determination by Karl Fisher titration in typical lots is 0.6 to 1.1%. […] Form I of CEM-101 melts at about 200° C. by DSC analysis.
The new physical form, Form II of CEM-101 is a crystalline form which may be described by its X-ray powder diffraction pattern. Peaks at approximate positions of about °2θ=5.6, 7.9, 9.3, 11.7, 12.9 and 16.7 are representative of this crystalline form. A more detailed analysis of the peaks is described in Tables 3-4 below. Based on a single crystal X-ray determination and dynamic vapor sorption analysis, Form II appears to be a non-hygroscopic anhydrous crystalline form that melts at about 225° C. as a single endothermic event by DSC analysis. It is appreciated herein that non-hygroscopic solids, such as Form II described herein, may be advantageous in the preparation of pharmaceutical compositions. Such advantages include improved handling and stability properties in manufacturing, improved lot to lot quality control.

[2] = Mean intrinsic dissolution studies; assay type: physicochemical
Source text: Mean intrinsic dissolution rates for exemplary batches of the two forms are shown in Table cC-2 for 3 batches of Form I (SD and % CV for one batch shown) and for Form II.

[3] = Further oral pharmacokinetic study in female Balb/c mice, 5, 10 and 20 mg/kg; conditions: mouse, plasma; for half-life: t½
[4] = Oral pharmacokinetics in Balb/c mice, single dose 20 or 100 mg/kg; conditions: for AUCextrap: mean plasma; for AUC(0-inf) / AUC(0-t) / Cmax / Tmax / concentration at 0 h / concentration at 0.25 h / concentration at 0.5 h / concentration at 1 h / concentration at 2 h / concentration at 4 h / concentration at 6 h: Balb/c, mouse, plasma, po
Procedure: The doses were prepared as 2.0 mg/mL or 10.0 mg/mL in a vehicle of 0.5% (w/v) carboxymethyl cellulose in water and a dose volume of 10 mL/kg b.w. Blood samples were collected at various time points during the next 6 h post dose.

[5] = Pharmacokinetic comparison of forms by dosing vehicle
[6] = 5 mg/kg, Mean, 5 mg/kg single oral dose
[7] = 5 mg/kg, Median, 5 mg/kg single oral dose
[8] = 10 mg/kg, Mean, 10 mg/kg single oral dose
[9] = 10 mg/kg, Median, 10 mg/kg single oral dose
[10] = 20 mg/kg, Mean, 20 mg/kg single oral dose
[11] = 20 mg/kg, Median, 20 mg/kg single oral dose

## CC[C@H]1OC(=O)[C@@](C)(F)C(=O)[C@H](C)[C@@H](O[C@@H]2O[C@H](C)C[C@H](N(C)C)[C@H]2O)[C@](C)(OC)C[C@@H](C)C(=O)[C@H](C)[C@H]2N(CCCCn3cc(-c4cccc(N)c4)nn3)C(=O)O[C@]12C [Form II, solithromycin]
[1]; pH 1.2, simulated gastric fluid
  solubility at 6 h: 3640 µg/mL (≈ 4310 µM)
[1]; pH 4, aqueous buffer
  solubility at 6 h: 361 µg/mL (≈ 427 µM)
[1]; pH 7.4, aqueous buffer
  solubility at 6 h: 305 µg/mL (≈ 361 µM)
[1]; pH 9.2, aqueous buffer
  solubility at 6 h: 331 µg/mL (≈ 392 µM)
Dynamic vapor sorption
  hygroscopicity: non-hygroscopic
[2]; 0.1N Hydrochloric Acid
  Mean intrinsic dissolution rate: 8.8 mg/min/cm^2
[2]; Acetate buffer, pH 4.5
  Mean intrinsic dissolution rate: 2.7 mg/min/cm^2
[2]; Phosphate buffer, pH 6.8
  Mean intrinsic dissolution rate: 0.01 mg/min/cm^2
[3]; 5 mg/kg, AUC 0-24, Mean, 5 mg/kg single oral dose
  AUC(0-t): 4690 ng·h/mL
[3]; 5 mg/kg, AUC 0-24, Median, 5 mg/kg single oral dose
  AUC(0-t): 4310 ng·h/mL
[3]; [6]
  Cmax: 1850 ng/mL
  Tmax: 1.2 h
  half-life: 1.17 h
[3]; [7]
  Cmax: 1800 ng/mL
  Tmax: 1 h
  half-life: 1.12 h
[3]; 10 mg/kg, AUC 0-24, Mean, 10 mg/kg single oral dose
  AUC(0-t): 7580 ng·h/mL
[3]; 10 mg/kg, AUC 0-24, Median, 10 mg/kg single oral dose
  AUC(0-t): 7590 ng·h/mL
[3]; [8]
  Cmax: 2630 ng/mL
  Tmax: 1.25 h
  half-life: 1.42 h
[3]; [9]
  Cmax: 2420 ng/mL
  Tmax: 1 h
  half-life: 1.53 h
[3]; 20 mg/kg, AUC 0-24, Mean, 20 mg/kg single oral dose
  AUC(0-t): 20100 ng·h/mL
[3]; 20 mg/kg, AUC 0-24, Median, 20 mg/kg single oral dose
  AUC(0-t): 21700 ng·h/mL
[3]; [10]
  Cmax: 5360 ng/mL
  Tmax: 1.1 h
  half-life: 2.46 h
[3]; [11]
  Cmax: 5660 ng/mL
  Tmax: 1 h
  half-life: 2.46 h
[4]; Female Balb/c mouse, 20 mg/kg oral, listed as CEM-101 Form II, 20 mg/kg
  AUCextrap: 12%
[4]; Male Balb/c mouse, 20 mg/kg oral, listed as CEM-101 Form II, 20 mg/kg
  AUCextrap: 42%
[4]; Male Balb/c mouse, 100 mg/kg oral
  AUCextrap: 33%
[4]; female, 20 mg/kg
  AUC(0-inf): 36000 ng·h/mL
  AUC(0-t): 31600 ng·h/mL
  Cmax: 8800 ng/mL
  Tmax: 0.5 h
  concentration at 0 h: 0 ng/mL
  concentration at 0.25 h: 6200 ± 1600 ng/mL
  concentration at 0.5 h: 8800 ± 800 ng/mL
  concentration at 1 h: 7300 ± 900 ng/mL
  concentration at 2 h: 6100 ± 1000 ng/mL
  concentration at 4 h: 5500 ± 1700 ng/mL
  concentration at 6 h: 1300 ± 500 ng/mL
[4]; female, 100 mg/kg
  AUC(0-t): 55000 ng·h/mL
  Cmax: 10500 ng/mL
  Tmax: 4 h
  concentration at 0 h: 0 ng/mL
  concentration at 0.25 h: 7300 ± 900 ng/mL
  concentration at 0.5 h: 10500 ± 1400 ng/mL
  concentration at 1 h: 9600 ± 2200 ng/mL
  concentration at 2 h: 9500 ± 2200 ng/mL
  concentration at 4 h: 10200 ± 1000 ng/mL
  concentration at 6 h: 7800 ± 1100 ng/mL
[4]; male, 20 mg/kg
  AUC(0-inf): 49000 ng·h/mL
  AUC(0-t): 29000 ng·h/mL
  Cmax: 6730 ng/mL
  Tmax: 0.5 h
  concentration at 0 h: 0 ng/mL
  concentration at 0.25 h: 4100 ± 800 ng/mL
  concentration at 0.5 h: 6700 ± 600 ng/mL
  concentration at 1 h: 5900 ± 800 ng/mL
  concentration at 2 h: 5600 ± 400 ng/mL
  concentration at 4 h: 4900 ± 1100 ng/mL
  concentration at 6 h: 2900 ± 600 ng/mL
[4]; male, 100 mg/kg
  AUC(0-inf): 99000 ng·h/mL
  AUC(0-t): 66000 ng·h/mL
  Cmax: 10600 ng/mL
  Tmax: 4 h
  concentration at 0 h: 0 ng/mL
  concentration at 0.25 h: 6800 ± 700 ng/mL
  concentration at 0.5 h: 6900 ± 1100 ng/mL
  concentration at 1 h: 8700 ± 2700 ng/mL
  concentration at 2 h: 9300 ± 1200 ng/mL
  concentration at 4 h: 10600 ± 1400 ng/mL
  concentration at 6 h: 7200 ± 800 ng/mL
[5]; dosed in a vehicle in which the compound is present as a solid
  difference in measured pharmacokinetic parameters, including Cmax, Tmax, and AUC, among Form I and Form II: no statistical difference
[5]; dosed in a vehicle in which the compound is well solubilized
  difference in measured pharmacokinetic parameters, including Cmax, Tmax, and AUC, among Form I and Form II: no observed difference
